The values that follow come from patent US20200377561A1, “ANTIMICROBIAL PEPTIDES AND METHODS OF TREATING GRAM-NEGATIVE PATHOGEN INFECTIONS: POLAR AND NON-POLAR FACE ANALOGS” (THE REGENTS OF THE UNIVERSITY OF COLORADO, a body corporate, priority 2017, published 2020).

Data set [1] can be described thus: Peptide hydrophobicity by RP-HPLC retention. It is filed as physicochemical. The settings on record: for tR (relative hydrophobicity by RP-HPLC): Zorbax SB-300 C8, 0.25% B/min from 10% B, 0.3 ml/min, 30° C.; for ΔtR (Lys): retention time difference to the Lys13/Lys16 parent peptide. The source says:
Retention behavior in RP-HPLC is an excellent method to represent overall peptide hydrophobicity. Retention times of peptides are highly sensitive to the conformational status of the peptides upon interaction with the hydrophobic environment of the column matrix^17,26. The non-polar faces of amphipathic alpha-helical and amphipathic cyclic beta-sheet peptides represent a preferred binding domain for interaction with the hydrophobic matrix of the reversed-phase column^27. In this study, the observed peptide hydrophobicity was determined by RP-HPLC retention time as described below and are relative hydrophobicities because they are dependent on the TFA concentration and organic solvent in the mobile phase, gradient rate, temperature, flow rate and the column used. Analytical Purification by Reversed-phase Chromatography: Analytical RP-HPLC: Column: Zorbax SB-300 C8 (150×2.1 mm ID; 5-μm particle size; 300 Å pore size). Conditions: linear AB gradient (0.25% B/min from 10% B) at a flow-rate of 0.3 ml/min, where Eluent A is 0.2% aq. TFA and Eluent B is 0.18% TFA in acetonitrile; 30° C.

A further data set deals with Human erythrocytes. Kind of data set: Haemolysis assay using human blood. The settings on record: red cells of human, 1 h. It is filed as cell-based. On the procedure:
To determine the extent of haemolytic activity (the ability to lyse red blood cells) in test peptides, a haemolysis assay was conducted using human blood (BioIVT, West Sussex, UK). Human erythrocytes were exposed to a single fixed concentration or a range of concentrations as to determine the % haemolysis (fixed concentration) or the concentration at which 50% haemolysis occurred (HC50), respectively. Prior to the assay, whole human blood was repeatedly washed in phosphate buffered saline (PBS) under cooled conditions to remove the buffy coat, plasma and cell debris. Washed erythrocytes were diluted as to achieve 1×10^8 cells/mL in PBS. Prepared human erythrocyte samples were combined with peptide at a single fixed concentration of 128 μg/mL, or a range of concentrations (two-fold dilution series) from 1000-31.25 μg/mL. Positive and negative controls containing 2% (v/v) Triton X-100 and PBS alone, respectively, were also prepared. Samples were incubated at 37° C. for 1 hour and then centrifuged to collect intact erythrocytes. Haemoglobin release was determined by recording the optical density of the supernatant at 540 nm. Optical density values were transformed to a percentage of the positive control. Results were recorded as a percentage haemolysis at 128 μg/mL, or by plotting the percentage haemolysis versus concentration and extrapolating the HC50 using linear regression analysis (Table 2 above)
The therapeutic index is a widely-accepted parameter to represent the specificity of antimicrobial peptides for prokaryotic versus eukaryotic cells. It is calculated by the ratio of hemolytic activity and antimicrobial activity (MIC) (Table 2 above); thus, larger values of therapeutic index indicate greater specificity for prokaryotic cells. With the peptides used in this study the inventors used the HC50/MIC ratio value to calculate the therapeutic index.

For data set [2], the system named is Acinetobacter baumannii NCTC 13420. Format: cell-based. Conditions: NCTC 13420. How it is done:
(§1) Bacterial strains were acquired from the American Type Culture Collection (ATCC, Virginia, USA) and the National Collection of Type Cultures (NCTC, Public Health England, Salisbury, UK). Minimum Inhibitory Concentration (MIC) of peptides versus gram-negative strains-Acinetobacter baumannii NCTC 13420, and Pseudomonas aeruginosa ATCC 27853 and gram-positive strain Staphylococcus aureus ATCC 29213, were determined by broth microdilution as per the guidelines of the Clinical and Laboratory Standards Institute (“Methods for Dilution Antimicrobial Susceptibility Tests for Bacteria That Grow Aerobically”; Approved Standard-Ninth Edition. CLSI document M07-A9, 2012). Peptides were dissolved in sterile distilled water, which was also used as the drug-free vehicle control when determining peptide MICs. Prior to use in the MIC protocol, bacterial strains were grown on Mueller Hinton agar at 37° C. in an ambient atmosphere. […] A fixed inoculum of the test microorganism (5×10^5 cells/mL) is also added to the plate. The MIC is determined as the lowest concentration of compound that inhibits visible bacterial growth following incubation at 37° C. for 16-20 hours. A difference in MIC of two-fold between experimental replicates is considered to be within the normal variability of this protocol.

Data set [3] has as its system Pseudomonas aeruginosa ATCC 27853. It is filed as cell-based. Conditions: ATCC 27853. On the procedure: as §1

Peptide text beside a SMILES is read from it.

Take `CC(=O)N[C@H](CCCCN)C(=O)N[C@H](CC(C)C)C(=O)N[C@H](CCCCN)C(=O)N[C@H](CCCCN)C(=O)N[C@H](CC(C)C)C(=O)N[C@H](CC(C)C)C(=O)N[C@H](CCCCN)C(=O)N[C@H](CCCCN)C(=O)N[C@H](CC(C)C)C(=O)N[C@H](CO)C(=O)N[C@H](CO)C(=O)N[C@H](C)C(=O)N[C@H](CCN)C(=O)N[C@H](CO)C(=O)N[C@H](CO)C(=O)N[C@H](CCN)C(=O)N[C@H](CC(C)C)C(=O)N[C@H](CO)C(=O)N[C@@H](C(=O)N[C@H](CC(C)C)C(=O)N[C@H](CC(C)C)C(=O)N[C@H](CCCCN)C(=O)N[C@H](CCCCN)C(=O)N[C@H](CC(C)C)C(=O)N[C@H](CCCCN)C(=O)N[C@H](CCCCN)C(N)=O)[C@H](C)O` [compound 15] (HELM PEPTIDE1{[ac].[dK].[dL].[dK].[dK].[dL].[dL].[dK].[dK].[dL].[dS].[dS].[dA].[NCC[C@@H](N[*:1])C(=O)[*:2]].[dS].[dS].[NCC[C@@H](N[*:1])C(=O)[*:2]].[dL].[dS].[dT].[dL].[dL].[dK].[dK].[dL].[dK].[dK].[am]}$$$$V2.0): in data set [1], the “tR (relative hydrophobicity by RP-HPLC)” value came to 83.40 min and the “ΔtR (Lys)” value came to 3.97 min. The “Haemolysis HC50” value with Human erythrocytes was over 1000 µg/mL. For the same compound, in data set [2], the “Antimicrobial Activity MIC A. baumannii NCTC13420” value was determined as 2 µg/mL. Also, in data set [3], the “P. aeruginosa ATCC27853 MIC” value amounted to 4 µg/mL.

For `CC(=O)N[C@H](CCCCN)C(=O)N[C@H](CC(C)C)C(=O)N[C@H](CCCCN)C(=O)N[C@H](CCCCN)C(=O)N[C@H](CC(C)C)C(=O)N[C@H](CC(C)C)C(=O)N[C@H](CCCCN)C(=O)N[C@H](CCCCN)C(=O)N[C@H](CC(C)C)C(=O)N[C@H](CO)C(=O)N[C@H](CO)C(=O)N[C@H](C)C(=O)N[C@H](CN)C(=O)N[C@H](CO)C(=O)N[C@H](CO)C(=O)N[C@H](CN)C(=O)N[C@H](CC(C)C)C(=O)N[C@H](CO)C(=O)N[C@@H](C(=O)N[C@H](CC(C)C)C(=O)N[C@H](CC(C)C)C(=O)N[C@H](CCCCN)C(=O)N[C@H](CCCCN)C(=O)N[C@H](CC(C)C)C(=O)N[C@H](CCCCN)C(=O)N[C@H](CCCCN)C(N)=O)[C@H](C)O` [compound 16] (HELM PEPTIDE1{[ac].[dK].[dL].[dK].[dK].[dL].[dL].[dK].[dK].[dL].[dS].[dS].[dA].[NC[C@@H](N[*:1])C(=O)[*:2]].[dS].[dS].[NC[C@@H](N[*:1])C(=O)[*:2]].[dL].[dS].[dT].[dL].[dL].[dK].[dK].[dL].[dK].[dK].[am]}$$$$V2.0), in data set [1], the “tR (relative hydrophobicity by RP-HPLC)” value came to 84.06 min and the “ΔtR (Lys)” value was 3.31 min. Also, the “Haemolysis HC50” value in the data set on Human erythrocytes was over 1000 µg/mL. Further, the “Antimicrobial Activity MIC A. baumannii NCTC13420” value in data set [2] was found to be 2 µg/mL. In addition, the “P. aeruginosa ATCC27853 MIC” value in data set [3] amounted to 4 µg/mL.

Regarding `CC(=O)N[C@H](C)C(=O)N[C@H](CC(C)C)C(=O)N[C@H](CCCCN)C(=O)N[C@H](CCCCN)C(=O)N[C@H](CC(C)C)C(=O)N[C@H](CC(C)C)C(=O)N[C@H](CCCCN)C(=O)N[C@H](CCCCN)C(=O)N[C@H](CC(C)C)C(=O)N[C@H](CO)C(=O)N[C@H](CO)C(=O)N[C@H](C)C(=O)N[C@H](CCCCN)C(=O)N[C@H](CO)C(=O)N[C@H](CO)C(=O)N[C@H](CCCCN)C(=O)N[C@H](CC(C)C)C(=O)N[C@H](CO)C(=O)N[C@@H](C(=O)N[C@H](CC(C)C)C(=O)N[C@H](CC(C)C)C(=O)N[C@H](CCCCN)C(=O)N[C@H](CCCCN)C(=O)N[C@H](CC(C)C)C(=O)N[C@H](CCCCN)C(=O)N[C@H](CCCCN)C(N)=O)[C@H](C)O` [compound 8] (HELM PEPTIDE1{[ac].[dA].[dL].[dK].[dK].[dL].[dL].[dK].[dK].[dL].[dS].[dS].[dA].[dK].[dS].[dS].[dK].[dL].[dS].[dT].[dL].[dL].[dK].[dK].[dL].[dK].[dK].[am]}$$$$V2.0), in data set [1], the “tR (relative hydrophobicity by RP-HPLC)” value turned out to be 94.51 min. For the same compound, the “Haemolysis HC50” value in the data set with Human erythrocytes is over 1000 µg/mL. Also, the “Antimicrobial Activity MIC A. baumannii NCTC13420” value in data set [2] worked out at 2 µg/mL. The “P. aeruginosa ATCC27853 MIC” value in data set [3] was determined as 4 µg/mL.

As for `CC(=O)N[C@H](C)C(=O)N[C@H](CC(C)C)C(=O)N[C@H](CCCCN)C(=O)N[C@H](CCCCN)C(=O)N[C@H](CC(C)C)C(=O)N[C@H](CC(C)C)C(=O)N[C@H](CCCCN)C(=O)N[C@H](CCCCN)C(=O)N[C@H](CC(C)C)C(=O)N[C@H](CO)C(=O)N[C@H](CO)C(=O)N[C@H](C)C(=O)N[C@H](CCCN)C(=O)N[C@H](CO)C(=O)N[C@H](CO)C(=O)N[C@H](CCCN)C(=O)N[C@H](CC(C)C)C(=O)N[C@H](CO)C(=O)N[C@@H](C(=O)N[C@H](CC(C)C)C(=O)N[C@H](CC(C)C)C(=O)N[C@H](CCCCN)C(=O)N[C@H](CCCCN)C(=O)N[C@H](CC(C)C)C(=O)N[C@H](CCCCN)C(=O)N[C@H](CCCCN)C(N)=O)[C@H](C)O` [compound 19] (HELM PEPTIDE1{[ac].[dA].[dL].[dK].[dK].[dL].[dL].[dK].[dK].[dL].[dS].[dS].[dA].[NCCC[C@@H](N[*:1])C(=O)[*:2]].[dS].[dS].[NCCC[C@@H](N[*:1])C(=O)[*:2]].[dL].[dS].[dT].[dL].[dL].[dK].[dK].[dL].[dK].[dK].[am]}$$$$V2.0), in data set [1], the “tR (relative hydrophobicity by RP-HPLC)” value stood at 91.57 min and the “ΔtR (Lys)” value stood at 2.94 min. Also, the “Haemolysis HC50” value in the data set on Human erythrocytes is over 1000 µg/mL. In addition, the “Antimicrobial Activity MIC A. baumannii NCTC13420” value in data set [2] was found to be 2 µg/mL. The “P. aeruginosa ATCC27853 MIC” value in data set [3] stood at 4 µg/mL.

In the case of `CC(=O)N[C@H](C)C(=O)N[C@H](CC(C)C)C(=O)N[C@H](CCCCN)C(=O)N[C@H](CCCCN)C(=O)N[C@H](CC(C)C)C(=O)N[C@H](CC(C)C)C(=O)N[C@H](CCCCN)C(=O)N[C@H](CCCCN)C(=O)N[C@H](CC(C)C)C(=O)N[C@H](CO)C(=O)N[C@H](CO)C(=O)N[C@H](C)C(=O)N[C@H](CCN)C(=O)N[C@H](CO)C(=O)N[C@H](CO)C(=O)N[C@H](CCN)C(=O)N[C@H](CC(C)C)C(=O)N[C@H](CO)C(=O)N[C@@H](C(=O)N[C@H](CC(C)C)C(=O)N[C@H](CC(C)C)C(=O)N[C@H](CCCCN)C(=O)N[C@H](CCCCN)C(=O)N[C@H](CC(C)C)C(=O)N[C@H](CCCCN)C(=O)N[C@H](CCCCN)C(N)=O)[C@H](C)O` [compound 20] (HELM PEPTIDE1{[ac].[dA].[dL].[dK].[dK].[dL].[dL].[dK].[dK].[dL].[dS].[dS].[dA].[NCC[C@@H](N[*:1])C(=O)[*:2]].[dS].[dS].[NCC[C@@H](N[*:1])C(=O)[*:2]].[dL].[dS].[dT].[dL].[dL].[dK].[dK].[dL].[dK].[dK].[am]}$$$$V2.0), in data set [1], the “tR (relative hydrophobicity by RP-HPLC)” value is 91.57 min and the “ΔtR (Lys)” value was 2.94 min. The “Haemolysis HC50” value in the data set with Human erythrocytes was over 1000 µg/mL. The “Antimicrobial Activity MIC A. baumannii NCTC13420” value in data set [2] is 2 µg/mL. Also, the “P. aeruginosa ATCC27853 MIC” value in data set [3] came to 4 µg/mL.
